Source: publication PMC5075098, “Preclinical Evaluation of the Stability, Safety, and Efficacy of CD101, a Novel Echinocandin” (Antimicrobial Agents and Chemotherapy, 2016)
Like-named read-outs stand apart in the source and are kept apart here. Starred links: 1 amine or outer side, 2 acyl side, 3 side chain; linkers in the order of their positions; H or OH if unused. Positions of bridges follow the written chain, without caps; N, C: chain ends. Non-standard residues stand in square brackets, D forms with d. Residues, ends and D or L forms follow the SMILES beside them. *: point of attachment. Orn(4R-OH,5R-OCH2CH2NMe3+) = C[N+](C)(C)CCO[C@@H](N[*:3])[C@H](O)C[C@H](N[*:1])C(=O)[*:2]; pTerphenylCO(4''-OnC5H11) = CCCCCOc1ccc(-c2ccc(-c3ccc(C(=O)*)cc3)cc2)cc1; hTyr(3S-OH,4S-OH) = N[C@H](C(=O)O)[C@H](O)[C@@H](O)c1ccc(O)cc1; Pro(3S-OH,4S-Me) = C[C@H]1CN[C@H](C(=O)O)[C@H]1O; Hyp = O=C(O)[C@@H]1C[C@@H](O)CN1

Columns and labels:
[1] = Plasma protein binding, rapid equilibrium dialysis; assay type: in vitro ADME; conditions: human, pH 7.4, read-out: protein bound (converted)
Method: Rapid equilibrium dialysis (RED) ([16]) was used to determine cross-species protein binding of CD101 in CD-1 mouse, Sprague-Dawley rat, cynomolgus monkey, chimpanzee, and human plasma. […] Dialysis buffer (350 μl of phosphate-buffered saline [PBS], pH 7.4, with 100 mM sodium phosphate) was loaded into the buffer (left) channel of the RED device. The device was agitated gently at 37°C for 4 h. Samples were placed into a new 96-well plate for matrix matching (25 μl of plasma added to the dialysis buffer aliquots or 25 μl of dialysis buffer to the plasma aliquots). […] Following centrifugation, 200 μl of the supernatant was transferred to a clean 96-well plate and evaporated to dryness at 37°C under nitrogen. Samples were reconstituted in 100 μl of 1:1 acetonitrile-water prior to analysis by LC-MS/MS. The percentage bound was calculated as the difference between 100% and the percentage free (the ratio of the concentration in supernatant to the concentration in plasma).

[2] = Plasma protein binding, ultracentrifugation; assay type: in vitro ADME; conditions: human, ∼500,000 × g 2.5 h at 37°C, LC-MS/MS, SEM, read-out: % of protein bound (SEM) (converted)
Method: Ultracentrifugation ([15]) was used to compare human plasma protein binding of CD101 and anidulafungin. […] Following ultracentrifugation, the supernatant was transferred to a microtiter plate containing 50 μl plasma for matrix-matching purposes and quenched with 400 μl of cold acetonitrile (ACN) with 0.1% formic acid containing diclofenac as an internal standard. Quenched samples were centrifuged for 5 min at 10°C (e.g., 3,100 rpm [2,000 × g]) to sediment the precipitated proteins, and 50 μl supernatant was transferred to a microtiter plate containing 100 μl of water prior to analysis by LC-MS/MS. The percentage bound was the difference between 100% and the percentage free (the ratio of the concentration in supernatant to the total concentration).

[3] = 2-week repeat-dose toxicity and hepatotoxicity screening; assay type: in vivo, Sprague-Dawley rats
Method: Dosing solutions were prepared in a vehicle comprising 5% mannitol containing 2.5% polysorbate 80 (Tween 80) in 0.3% acetic acid.
Animals were randomly assigned to dose groups and stratified by weight to achieve similar group mean body weights (males, 255 to 318 g; females, 192 to 215 g). Blood, urine, and liver samples (excised and preserved in 10% neutral buffered formalin) were obtained on day 15. Plasma liver enzyme levels were assessed. Liver tissues were processed to paraffin blocks and prepared for slides. Slides were stained with hematoxylin and eosin. Hematology data were collected using the Advia 120 hematology analyzer. Coagulation data were collected using the Diagnostica STA compact coagulation analyzer. Clinical chemistry data were collected using the AU400 chemistry analyzer. Qualitative and quantitative urinalysis was recorded using iRICELL 1500 UA analyzer. Clinical effects were assessed for determination of the maximum tolerated dose (MTD).
Statistical evaluations were performed on in-life and clinical pathology numerical data to determine statistical significance following a decision tree. First, the homogeneity of the data was determined by Bartlett's test. If the data were homogeneous, a one-way analysis of variance was performed to assess statistical significance. If statistically significant differences between the means were found, Dunnett's test was used to determine the degree of significance from the control means (P < 0.05, P < 0.01, and P < 0.001). If the data were nonhomogeneous, the Kruskal-Wallis nonparametric analysis was performed to assess statistical significance. If statistically significant differences between the means were found (P < 0.05, P < 0.01, and P < 0.001), the Mann-Whitney U test was used to determine the degree of significance from the control means (P < 0.05, P < 0.01, and P < 0.001).

[4] = rat
[5] = CD101 2, 6, 20 mg/kg/day i.v. 14 days, rats

Work on `CCCCCOc1ccc(-c2ccc(-c3ccc(C(=O)N[C@H]4C[C@@H](O)[C@@H](OCC[N+](C)(C)C)NC(=O)[C@@H]5[C@@H](O)[C@@H](C)CN5C(=O)[C@H]([C@@H](C)O)NC(=O)[C@H]([C@H](O)[C@@H](O)c5ccc(O)cc5)NC(=O)[C@@H]5C[C@@H](O)CN5C(=O)[C@H]([C@@H](C)O)NC4=O)cc3)cc2)cc1` [CD101] ({pTerphenylCO(4''-OnC5H11)}-[Orn(4R-OH,5R-OCH2CH2NMe3+)]T[Hyp][hTyr(3S-OH,4S-OH)]T[Pro(3S-OH,4S-Me)]; lactam 1-C) yielded a fraction unbound [1] of 0.013, a fraction unbound ([2]; 1 μg/ml) of 0.02 and a fraction unbound ([2]; 5 μg/ml) of 0.017. The “repeat-dose systemic or target organ toxicity” value ([3]; 14-day i.v. infusion, rats, CD101 20 mg/kg/day, anidulafungin 40 mg/kg/day (comparable exposure)) was “did not appear to elicit any evidence of repeat-dose systemic or target organ toxicity”, the early deaths [3, 5] was “no early deaths” and the “effects on body weight, hematology, coagulation, or urinalysis” value [3, 5] was “did not exhibit effects on body weight, hematology, coagulation, or urinalysis”. The increases in neutrophils ([3]; CD101 2, 6, 20 mg/kg/day i.v. 14 days, rats, P ≤ 0.01, within normal limits, considered incidental) was “up to 31%”, the “increases in reticulocytes, hemoglobin, hematocrit, activated partial thromboplastin time, BUN, sodium, total bilirubin, total protein, chloride, and globulin” value ([3]; CD101 2, 6, 20 mg/kg/day i.v. 14 days, rats, P ≤ 0.05, within normal limits, considered incidental) was “less than 20%” and the “microscopic changes in the liver” value ([3]; day 15, H&E, CD101 2, 6, or 20 mg/kg/day, anidulafungin 40 mg/kg/day (some of the females)) was “no microscopic changes”. For the same compound, the half-life ([4]; liver microsomes) was over 4 h, the half-life ([4]; microsomes) was 3.99 h and the microsomal CLint ([4]; microsomes) was 9.6 µL/min/mg.
